According to patent US10285988B2, “Compounds for treatment of fibrosis diseases” (CUREGENIX, INC., priority 2013, dated 2019):

System: WNT pathway
Experiment: WNT pathway reporter gene assay (NIH3T3 TCF-Luc cells co-cultured with 293 WNT3a cells)
Format: cell-based
Details: Mus musculus, co-culture 16 hours, luciferase luminescence reduced by 50%
Procedure: Materials and Methods: NIH3T3 mouse fibroblast cells (American Type Culture Collection, Manassas, Va.) were transfected with a plasmid containing a luciferase gene driven by 5 copies of TCF elements. Stale cells selected with 1 μg/mL of Zeocin (Gibco/Invitrogen, Carlsbad, Calif.) are cultured in Dulbecco's modified Eagle's medium (Invitrogen, Carlsbad, Calif.) supplemented with 10% FBS (Invitrogen), 50 unit/mL penicillin and 50 μg/mL of streptomycin (Invitrogen) at 37° C. with 5% CO2 in air atmosphere.
After 16 hours, the firefly luciferase activities are measured with the Steady-Glo™ Luciferase Assay System (Promega). The cells were treated with different concentrations of compounds of this invention during the co-culture. […] To normalize for cell quantity and viability, CellTiter Glo assay is next performed in a duplicate plate.

IC50 [nM] | SMILES
< 3 | Cc1cc(-c2ccc(CNc3nccc4cc(-c5ccnc(C)c5)ncc34)cc2)ccn1 [Compound 1, N-(4-(2-methylpyridin-4-yl)benzyl)-6-(2-methylpyridin-4-yl)-2,7-naphthyridin-1-amine]
< 3 | Cc1cc(-c2cc3ccnc(NCc4ccc(-c5ccnc(C)c5)c(C)c4)c3cn2)ccn1 [Compound 2, N-(3-methyl-4-(2-methylpyridin-4-yl)benzyl)-6-(2-methylpyridin-4-yl)-2,7-naphthyridin-1-amine]

Second part, the compound before the results:

SMILES | IC50 [nM]
Cc1cc(-c2cc3ccnc(NCc4ccc(-c5ccnc(F)c5)c(F)c4)c3cn2)ccn1 [Compound 28] | < 3
Cc1cc(-c2ncc(CNc3nccc4cc(-c5cnccn5)ccc34)cc2C)ccn1 [Compound 70] | < 3
Cc1cc(-c2ccc(CNc3nccc4cc(-c5cnccn5)ncc34)cc2)ccn1 [Compound 35] | < 3
